Patent US20250326744A1, “PIPERAZINE DERIVATIVE OR SALT THEREOF, AND PHARMACEUTICAL COMPOSITION” (priority 2022, published 2025)
Where a name gives a salt, the structure may show the parent alone.

Assays:
mexB (EC) strain = test: Efflux ability inhibition effect on drug efflux pump MexB (Test Examples 1 and 3): proliferation (OD595) of mexB (EC) strain with EM or LVFX at 1/4 MIC, EC75; assay type: cell-based, Escherichia coli; conditions: for EC75, mexB (EC) strain, EM: combined with EM at 1/4 MIC; for EC75, mexB (EC) strain, LVFX: combined with LVFX at 1/4 MIC
Summary of the method: (§1)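 E. coli ΔacrB/ΔtolC strains carrying P. aeruginosa MexAB-OprM or MexXY-OprM were grown in LB for 16 to 20 hours with EM or LVFX at ¼ MIC plus compound (0 to 800 μM). Growth was read as OD595. EC75 is the lowest compound concentration giving ≥75% growth inhibition versus antibiotic alone.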

mexY (EC) strain = test: Efflux ability inhibition effect on drug efflux pump MexY (Test Examples 1 and 3): proliferation (OD595) of mexY (EC) strain with EM or LVFX at 1/4 MIC, EC75; assay type: cell-based, Escherichia coli; conditions: for EC75, mexY (EC) strain, EM: combined with EM at 1/4 MIC; for EC75, mexY (EC) strain, LVFX: combined with LVFX at 1/4 MIC
Summary of the method: as §1

mexB (PA) strain = test: Combinational effect with antibacterial agent against Pseudomonas aeruginosa (Test Examples 2 and 4): mexB (PA) strain with LVFX, TC or AZT at 1/4 MIC, EC99; assay type: cell-based; conditions: mexB (PA) strain, Test Example 4; for EC99, combinational effect with AZT, mexB (PA): combined with AZT at 1/4 MIC; for EC99, combinational effect with LVFX, mexB (PA): combined with LVFX at 1/4 MIC; for EC99, combinational effect with TC, mexB (PA): combined with TC at 1/4 MIC
Summary of the method: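 EC99 denotes the minimum test-compound concentration (range 0–800 μM) that suppresses ≥99% of growth, measured by OD595, when combined with ¼ MIC levofloxacin (LVFX), tetracycline or aztreonam. The efflux-pump mutant mexB (PA), expressing mainly MexAB-OprM, was inoculated at 10^4–5 CFU/well in CAMHB for 16–20 h.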

S-3769 strain = test: Combinational effect with antibacterial agent against Pseudomonas aeruginosa (Test Examples 2 and 4): S-3769 strain with AMK or GM at 1/4 MIC, EC99; assay type: cell-based; conditions: S-3769 strain, Test Example 4; for EC99, combinational effect with AMK, S-3769 strain: combined with AMK at 1/4 MIC; for EC99, combinational effect with GM, S-3769 strain: combined with GM at 1/4 MIC
Summary of the method: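 EC99, the lowest test-compound concentration inhibiting growth by ≥99% (OD595), was measured with aminoglycoside AMK or GM held at ¼ MIC. Strain S-3769, a MexY-overexpressing clinical isolate, was cultured in CAMHB at 10^4 to 5 CFU/well for 16–20 h; compound range 0–800 μM.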

[1] = Table 51, Test Example 1, 16 to 20 hours culture, OD595
[2] = Table 53, Test Example 3, same manner as Test Example 1

Structure (SMILES): O=C(O)c1ccccc1CN1CCN(C(=O)CN2CCN(CCc3ccccc3)CC2)CC1 [Example 256, sodium salt of 2-((4-(2-(4-phenethylpiperazin-1-yl)acetyl)piperazin-1-yl)methyl)benzenecarboxylic acid]
- EC75, mexB (EC) strain, EM (mexB (EC) strain; [1]): B (25 μM<EC75≤100 μM)
- EC75, mexY (EC) strain, EM (mexY (EC) strain; [1]): B (25 μM<EC75≤100 μM)

Structure (SMILES): COc1ccccc1CN1CCN(C(=O)C(=NN)C2CCN(CCc3ccccc3)CC2)CC1 [Example 301, hydrochloride of 2-hydrazinyliden-1-(4-(2-methoxybenzyl)piperazin-1-yl)-2-(1-phenethylpiperidin-4-yl)ethan-1-one]
- EC75, mexB (EC) strain, EM (mexB (EC) strain; [1]): B (25 μM<EC75≤100 μM)
- EC75, mexB (EC) strain, LVFX (mexB (EC) strain; [1]): B (25 μM<EC75≤100 μM)
- EC75, mexY (EC) strain, EM (mexY (EC) strain; [1]): B (25 μM<EC75≤100 μM)
- EC75, mexY (EC) strain, LVFX (mexY (EC) strain; [1]): B (25 μM<EC75≤100 μM)

Structure (SMILES): COc1ccccc1CN1CCN(C(=O)C(=NO)C2CCN(CCc3ccccc3)CC2)CC1 [Example 302, hydrochloride of 2-(hydroxyimino)-1-(4-(2-methoxybenzyl)piperazin-1-yl)-2-(1-phenethylpiperidine-4-yl)ethan-1-one]
- EC75, mexB (EC) strain, EM (mexB (EC) strain; [1]): B (25 μM<EC75≤100 μM)
- EC75, mexY (EC) strain, EM (mexY (EC) strain; [1]): B (25 μM<EC75≤100 μM)
- EC75, mexY (EC) strain, LVFX (mexY (EC) strain; [1]): B (25 μM<EC75≤100 μM)

Structure (SMILES): COc1ccccc1CN1CCN(C(=O)CN2CCC(CN)(CCc3ccccc3)CC2)CC1 [Example 413, hydrochloride of 2-(4-(aminomethyl)-4-phenethylpiperidin-1-yl)-1-(4-(2-methoxybenzyl)piperazin-1-yl)ethan-1-one]
- EC75, mexB (EC) strain, EM (mexB (EC) strain; [1]): A (12.5 μM<EC75≤25 μM)
- EC75, mexB (EC) strain, LVFX (mexB (EC) strain; [1]): A (12.5 μM<EC75≤25 μM)
- EC75, mexY (EC) strain, EM (mexY (EC) strain; [1]): A (12.5 μM<EC75≤25 μM)

Structure (SMILES): COc1ccccc1CN1CCN(C(=O)CN2CCC(N)(CCc3ccccc3)CC2)CC1 [Example 414, hydrochloride of 2-(4-amino-4-phenethylpiperidin-1-yl)-1-(4-(2-methoxybenzyl)piperazin-1-yl)ethan-1-one]
- EC75, mexB (EC) strain, LVFX (mexB (EC) strain; [1]): A (12.5 μM<EC75≤25 μM)
- EC75, mexY (EC) strain, EM (mexY (EC) strain; [1]): B (25 μM<EC75≤100 μM)
- EC75, mexY (EC) strain, LVFX (mexY (EC) strain; [1]): B (25 μM<EC75≤100 μM)

Structure (SMILES): COc1ccccc1CN1CCN(C(=O)CN2CCC(NC(=O)c3ccc(O)c(O)c3Cl)CC2)CC1 [Example 418, hydrochloride of 2-chloro-3,4-dihydroxy-N-(1-(2-(4-(2-methoxybenzyl)piperazin-1-yl)-2-oxoethyl)piperidin-4-yl)benzamide]
- EC75, mexB (EC) strain, EM (mexB (EC) strain; [1]): B (25 μM<EC75≤100 μM)
- EC75, mexB (EC) strain, LVFX (mexB (EC) strain; [1]): B (25 μM<EC75≤100 μM)
- EC75, mexY (EC) strain, LVFX (mexY (EC) strain; [1]): A (12.5 μM<EC75≤25 μM)

Structure (SMILES): COc1ccccc1CN1CCN(C(=O)CN2CCC(NCc3ccccc3)CC2)CC1 [Example 419, hydrochloride of 2-(4-(benzylamino)piperidin-1-yl)-1-(4-(2-methoxybenzyl)piperazin-1-yl)ethan-1-one]
- EC75, mexB (EC) strain, LVFX (mexB (EC) strain; [1]): A (12.5 μM<EC75≤25 μM)
- EC75, mexY (EC) strain, EM (mexY (EC) strain; [1]): B (25 μM<EC75≤100 μM)
- EC75, mexY (EC) strain, LVFX (mexY (EC) strain; [1]): B (25 μM<EC75≤100 μM)

Structure (SMILES): COc1cncc(F)c1CN1CCN(C(=O)[C@H](N)C2CCN(CCc3cc(Cl)ccc3-c3ccccc3)CC2)CC1 [Example 514, Hydrobromide of (R)-2-amino-2-(1-(2-(4-chloro-[1,1-biphenyl]-2-yl)ethyl)piperidin-4-yl)-1-(4-((3-fluoro-5-methoxypyridin-4-yl)methyl)piperazin-1-yl)ethan-1-one]
- EC75, mexB (EC) strain, EM (mexB (EC) strain; [2]): B (25 μM<EC75≤100 μM)
- EC75, mexB (EC) strain, LVFX (mexB (EC) strain; [2]): B (25 μM<EC75≤100 μM)
- EC75, mexY (EC) strain, EM (mexY (EC) strain; [2]): B (25 μM<EC75≤100 μM)
- EC75, mexY (EC) strain, LVFX (mexY (EC) strain; [2]): B (25 μM<EC75≤100 μM)
- EC99, combinational effect with AZT, mexB (PA) (mexB (PA) strain): C (100 μM<EC99)
- EC99, combinational effect with LVFX, mexB (PA) (mexB (PA) strain): C (100 μM<EC99)
- EC99, combinational effect with TC, mexB (PA) (mexB (PA) strain): C (100 μM<EC99)
- EC99, combinational effect with AMK, S-3769 strain (S-3769 strain): B (25 μM<EC99≤100 μM)
- EC99, combinational effect with GM, S-3769 strain (S-3769 strain): B (25 μM<EC99≤100 μM)

Structure (SMILES): N[C@@H](C(=O)N1CCN(C[C@@H]2CCCN2)CC1)C1CCN(CCc2cc(Cl)ccc2-c2ccccc2)CC1 [Example 538, Hydrobromide of (R)-2-amino-2-(1-(2-(4-chloro-[1,1-biphenyl]-2-yl)ethyl)piperidin-4-yl)-1-(4-(((S)-pyrrolidin-2-yl)methyl)piperazin-1-yl)ethan-1-one]
- EC75, mexB (EC) strain, LVFX (mexB (EC) strain; [2]): B (25 μM<EC75≤100 μM)
- EC75, mexY (EC) strain, LVFX (mexY (EC) strain; [2]): A (12.5 μM<EC75≤25 μM)
- EC99, combinational effect with AZT, mexB (PA) (mexB (PA) strain): C (100 μM<EC99)
- EC99, combinational effect with LVFX, mexB (PA) (mexB (PA) strain): C (100 μM<EC99)
- EC99, combinational effect with TC, mexB (PA) (mexB (PA) strain): C (100 μM<EC99)
- EC99, combinational effect with AMK, S-3769 strain (S-3769 strain): C (100 μM<EC99)
- EC99, combinational effect with GM, S-3769 strain (S-3769 strain): C (100 μM<EC99)
